Data from US8039639B2, “Kinase inhibitors and methods of use thereof” (Array BioPharma Inc., priority 2006, dated 2011).
“Also recorded” adds a separate entry of the source.

Tests used:
BCR-Abl = target: T1, BCR-Abl (Homo sapiens, UniProt P00519); test: K562 immunoblot for p-Abl, pSTAT5, pCrkL; format: cell-based; conditions: K562 cells, 2 hours, 37-5000 nM
T1 construct: BCR (N-terminal part, natural fusion partner of the Philadelphia-chromosome chimera); endogenous in cells; host or cells: K562; the other entry of the earlier key: BCR (P11274, Breakpoint cluster region protein)
T1 sequence (P00519 with tags, fused parts or gaps): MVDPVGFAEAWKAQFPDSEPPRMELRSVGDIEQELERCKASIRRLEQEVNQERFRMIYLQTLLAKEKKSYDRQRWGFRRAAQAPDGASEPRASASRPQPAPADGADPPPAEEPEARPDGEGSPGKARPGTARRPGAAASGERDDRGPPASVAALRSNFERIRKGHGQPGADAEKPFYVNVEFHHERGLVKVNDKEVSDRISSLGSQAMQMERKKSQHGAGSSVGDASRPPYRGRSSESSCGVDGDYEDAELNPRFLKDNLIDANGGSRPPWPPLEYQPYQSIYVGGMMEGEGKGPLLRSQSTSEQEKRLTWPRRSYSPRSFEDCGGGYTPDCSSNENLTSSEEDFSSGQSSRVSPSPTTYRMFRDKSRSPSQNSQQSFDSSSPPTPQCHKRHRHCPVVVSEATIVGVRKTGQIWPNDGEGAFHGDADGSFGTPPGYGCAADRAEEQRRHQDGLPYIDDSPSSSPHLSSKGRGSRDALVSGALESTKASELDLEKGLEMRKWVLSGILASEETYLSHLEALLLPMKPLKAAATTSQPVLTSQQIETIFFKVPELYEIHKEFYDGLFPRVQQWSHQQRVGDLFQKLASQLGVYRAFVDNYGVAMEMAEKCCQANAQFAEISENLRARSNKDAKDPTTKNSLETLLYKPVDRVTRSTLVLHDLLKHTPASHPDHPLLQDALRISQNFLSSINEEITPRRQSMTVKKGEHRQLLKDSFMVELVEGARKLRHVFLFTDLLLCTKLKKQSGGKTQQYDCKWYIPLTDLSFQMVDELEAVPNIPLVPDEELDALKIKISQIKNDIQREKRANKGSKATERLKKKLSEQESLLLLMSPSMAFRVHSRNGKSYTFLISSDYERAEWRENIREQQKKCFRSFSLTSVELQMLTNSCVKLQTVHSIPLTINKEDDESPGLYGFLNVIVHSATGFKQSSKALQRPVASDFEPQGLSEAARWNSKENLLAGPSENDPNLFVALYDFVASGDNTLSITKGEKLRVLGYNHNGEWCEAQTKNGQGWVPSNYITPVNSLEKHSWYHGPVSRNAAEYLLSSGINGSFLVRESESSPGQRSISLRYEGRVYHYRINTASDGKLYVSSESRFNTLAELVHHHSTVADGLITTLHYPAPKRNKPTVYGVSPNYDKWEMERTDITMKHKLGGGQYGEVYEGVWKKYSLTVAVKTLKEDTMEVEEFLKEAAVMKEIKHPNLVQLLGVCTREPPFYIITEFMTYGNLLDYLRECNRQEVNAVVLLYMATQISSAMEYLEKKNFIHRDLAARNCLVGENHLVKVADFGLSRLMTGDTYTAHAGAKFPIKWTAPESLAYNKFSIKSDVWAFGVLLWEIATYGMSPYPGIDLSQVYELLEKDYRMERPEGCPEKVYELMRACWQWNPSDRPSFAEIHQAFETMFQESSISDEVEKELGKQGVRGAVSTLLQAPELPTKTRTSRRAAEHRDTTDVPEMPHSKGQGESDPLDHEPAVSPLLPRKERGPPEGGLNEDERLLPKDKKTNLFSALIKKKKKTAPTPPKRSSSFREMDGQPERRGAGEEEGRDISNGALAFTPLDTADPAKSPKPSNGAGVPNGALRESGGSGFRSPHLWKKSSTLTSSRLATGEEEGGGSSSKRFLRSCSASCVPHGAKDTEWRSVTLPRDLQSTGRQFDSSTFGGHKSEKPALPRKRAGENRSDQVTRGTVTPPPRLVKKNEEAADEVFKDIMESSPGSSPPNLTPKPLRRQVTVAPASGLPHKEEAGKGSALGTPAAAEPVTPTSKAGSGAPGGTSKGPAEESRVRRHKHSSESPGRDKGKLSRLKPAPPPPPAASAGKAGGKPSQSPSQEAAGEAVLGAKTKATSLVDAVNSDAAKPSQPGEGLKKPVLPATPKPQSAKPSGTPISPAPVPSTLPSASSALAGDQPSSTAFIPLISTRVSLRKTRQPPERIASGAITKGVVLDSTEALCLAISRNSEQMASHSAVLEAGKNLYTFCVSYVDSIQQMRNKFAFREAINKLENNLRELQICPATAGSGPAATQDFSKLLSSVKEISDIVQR

Abl = Abl (Homo sapiens, UniProt P00519); test: protein kinase IC50 determination (ATP at Km); format: biochemical; conditions: ATP concentration at Km
Sequence of Abl (P00519 whole entry, species assumed): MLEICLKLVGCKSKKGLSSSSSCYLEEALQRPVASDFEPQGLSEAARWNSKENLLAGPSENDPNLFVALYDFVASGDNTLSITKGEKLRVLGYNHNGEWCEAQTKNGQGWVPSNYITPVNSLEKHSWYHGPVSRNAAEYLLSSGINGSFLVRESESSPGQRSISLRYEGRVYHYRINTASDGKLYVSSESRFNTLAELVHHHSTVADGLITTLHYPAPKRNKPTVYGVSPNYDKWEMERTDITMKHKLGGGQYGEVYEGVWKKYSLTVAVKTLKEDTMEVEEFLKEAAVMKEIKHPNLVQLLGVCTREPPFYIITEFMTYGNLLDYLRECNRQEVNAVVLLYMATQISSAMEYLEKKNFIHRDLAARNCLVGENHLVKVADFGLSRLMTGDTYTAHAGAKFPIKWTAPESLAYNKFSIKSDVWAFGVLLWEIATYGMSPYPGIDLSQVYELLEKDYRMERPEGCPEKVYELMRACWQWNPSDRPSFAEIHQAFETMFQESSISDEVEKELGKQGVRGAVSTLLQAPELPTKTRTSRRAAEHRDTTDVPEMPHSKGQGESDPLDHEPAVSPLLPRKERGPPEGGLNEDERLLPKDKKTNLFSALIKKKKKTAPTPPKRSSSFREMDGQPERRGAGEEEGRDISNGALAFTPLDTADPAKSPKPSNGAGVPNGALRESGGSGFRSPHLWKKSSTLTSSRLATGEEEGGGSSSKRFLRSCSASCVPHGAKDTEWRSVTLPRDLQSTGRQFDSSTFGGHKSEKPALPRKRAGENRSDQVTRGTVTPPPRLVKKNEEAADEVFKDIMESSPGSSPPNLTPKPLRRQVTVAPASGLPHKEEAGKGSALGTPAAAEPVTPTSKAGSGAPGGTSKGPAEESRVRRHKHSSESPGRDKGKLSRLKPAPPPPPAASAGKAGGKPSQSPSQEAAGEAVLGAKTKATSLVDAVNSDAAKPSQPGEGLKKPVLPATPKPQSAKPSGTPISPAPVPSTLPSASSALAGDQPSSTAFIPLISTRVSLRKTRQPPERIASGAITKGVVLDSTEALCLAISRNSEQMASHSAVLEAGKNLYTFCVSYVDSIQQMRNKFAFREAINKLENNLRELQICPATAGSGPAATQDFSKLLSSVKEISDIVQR

K562 cells = test: K562 subcutaneous tumor model (BCR-Abl-driven tumors); format: in vivo, Female Scid-beige mice; conditions: for % Regression / Complete responses: K562 tumors, PO ×7, dosed as Compound 74; for Complete responses: n=8
Description: Test compounds were administered by oral gavage at the indicated doses and schedules when tumors reached 200±50 mm^3 in size. […] Tumor size and body weight were monitored throughout the study.

Lyn = Lyn (Homo sapiens, UniProt P07948); test: protein kinase IC50 determination (ATP at Km); format: biochemical; conditions: ATP concentration at Km
micronucleus = test: Micronucleus assay (in vitro); format: cell-based
Description: (§1) hERG assay was performed using a standard patch clamp protocol. AMES assay (bacterial reverse mutation assay) was performed according to protocol. […] In vitro and in vivo micronucleus assays were performed according to protocol.

[1] = 14-day tolerability study in mice; format: in vivo; conditions: 14 days, dosed as Compound 74
Description: Weight loss was assessed throughout study. Blood was removed on the final day for clinical chemistries (albumin, alkaline phosphatase, ALT, Amylase, BUN, calcium, cholesterol, creatinine, glucose, phosphate, total bilirubin, TP, Globulin).

Solubility determination = format: physicochemical
K562 = K562 cell viability (CellTiter Blue); format: cell-based; conditions: Homo sapiens; K562, 72 hours
Excerpt: Cell viability was subsequently measured using CellTiter Blue (Promega) to determine IC50 values for each compound.

sodium channel (site 2) = test: Off-target ligand displacement assay, panel of 28 receptors, ion channels and transporters; format: binding; conditions: at 10 μM; only hit among 28 entities screened
FGFR1 = FGFR1 (Homo sapiens, UniProt P11362); test: protein kinase IC50 determination (ATP at Km); format: biochemical; conditions: ATP concentration at Km
Tie2 = Tie2 (Homo sapiens, UniProt Q02763); test: Tie2 autophosphorylation in Ang-1 stimulated HUVECs; format: cell-based; design: endogenous in cells; host or cells: HUVEC; conditions: 200 ng/mL Ang-1 for 10 minutes
Excerpt: (§2) Tie2 was then immunopurified (IP) and immunoblotted with anti-phosphotyrosine (pTyr) and anti-Tie2 antibodies to assess the degree of Tie2 autophosphorylation. Lysates were immunoblotted with anti-phospho-Erk and anti-phospho-AKT (Ser473) antibodies, respectively. Signals were quantified and normalized to GAPDH as a loading control. The results were shown in an immunoblot and a graph.

CYP2C19 = target: T2, CYP2C19 (Homo sapiens, UniProt P33261); test: CYP inhibition assay (LC/MS, pooled human liver microsomes); format: in vitro ADME; conditions: n=1, read-out: CYPC19 IC50
T2 construct: using pooled human liver microsomes (n=1); from tissue; host or cells: pooled human liver microsomes
T2 sequence (P33261 whole entry): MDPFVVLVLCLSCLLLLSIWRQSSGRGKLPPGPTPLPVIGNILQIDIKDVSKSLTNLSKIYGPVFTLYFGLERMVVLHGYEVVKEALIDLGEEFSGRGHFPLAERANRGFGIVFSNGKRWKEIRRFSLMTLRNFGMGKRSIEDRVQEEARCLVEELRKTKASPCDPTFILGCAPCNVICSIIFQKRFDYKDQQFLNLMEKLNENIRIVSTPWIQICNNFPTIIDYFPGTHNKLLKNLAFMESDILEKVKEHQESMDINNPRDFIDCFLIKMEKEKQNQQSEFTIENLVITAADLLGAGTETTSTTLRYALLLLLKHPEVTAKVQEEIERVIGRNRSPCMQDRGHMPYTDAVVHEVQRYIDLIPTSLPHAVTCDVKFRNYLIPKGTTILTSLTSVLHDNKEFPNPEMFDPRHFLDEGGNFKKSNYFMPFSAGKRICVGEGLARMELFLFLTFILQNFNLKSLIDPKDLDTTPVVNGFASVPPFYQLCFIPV

p38 pathway = test: HeLa cell phospho-HSP27 assay, anisomycin-stimulated; format: cell-based; conditions: Homo sapiens; HeLa cells, 60 min pretreatment, 1 μg/mL anisomycin 60 min; read-out: apparent IC50, p38 pathway in cells (phospho-HSP27 Ser78)
Excerpt: Cells were labeled with antibodies against the phosphorylated form of HSP27 (Ser78) and GAPDH as a normalization control. Cells were imaged and quantified using a LI-COR Aeriustm imager.

CYP3A4 = target: T3, CYP3A4 (Homo sapiens, UniProt P08684); test: CYP inhibition assay (LC/MS, pooled human liver microsomes); format: in vitro ADME; conditions: n=1
T3 construct: using pooled human liver microsomes (n=1); from tissue; host or cells: pooled human liver microsomes
T3 sequence (P08684 whole entry): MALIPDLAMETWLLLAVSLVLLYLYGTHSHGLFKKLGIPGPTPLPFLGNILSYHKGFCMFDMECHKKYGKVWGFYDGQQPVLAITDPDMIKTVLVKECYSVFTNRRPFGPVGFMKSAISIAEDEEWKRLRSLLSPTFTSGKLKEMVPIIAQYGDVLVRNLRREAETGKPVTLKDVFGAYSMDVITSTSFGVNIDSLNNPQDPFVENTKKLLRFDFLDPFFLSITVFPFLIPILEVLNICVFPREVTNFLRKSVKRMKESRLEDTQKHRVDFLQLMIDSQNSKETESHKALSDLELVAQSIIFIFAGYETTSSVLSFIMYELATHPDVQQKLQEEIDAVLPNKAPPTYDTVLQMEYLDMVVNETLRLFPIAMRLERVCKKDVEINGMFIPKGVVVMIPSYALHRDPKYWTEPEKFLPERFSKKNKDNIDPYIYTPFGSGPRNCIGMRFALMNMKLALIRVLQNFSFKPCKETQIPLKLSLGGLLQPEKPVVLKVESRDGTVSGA

hERG = hERG (Homo sapiens, UniProt Q12809); test: hERG patch clamp; format: cell-based; conditions: at 10 μM
Description: as §1

VEGFR2 = target: T4, VEGFR2 (Homo sapiens, UniProt P35968); test: VEGFR2 autophosphorylation (Tyr1175) in VEGF-stimulated HUVECs; format: cell-based; conditions: 20 ng/mL VEGF for 5 minutes, read-out: IC50, VEGFR2 autophosphorylation at Tyrosine residue 1175
T4 construct: endogenous in cells; host or cells: HUVEC
Description: Lysates of the various treatments were prepared and immunoblotted with antibodies specific for VEGFR2 phosphorylated at Tyr1175. […] Phospho-VEGFR2 signal was normalized to GAPDH as a loading control.

[2] = system: TNF-α production in whole blood; test: TNF-α production in LPS-treated whole blood (ELISA); format: cell-based; conditions: whole blood treated with LPS, read-out: apparent IC50, inhibition of TNF-α production
Pharmacokinetics in rat = format: in vivo, male Sprague-Dawley rats
Excerpt: (§3) Non-compartmental (model independent) methods were used to analyze the plasma concentration time-curves derived from all species as described below. Clearance (Cl), calculated percent extraction ratios (ER %), volume of distribution (Vz), time to […] (t1/2) and exposure (AUC, area under the curve) values are provided below for mouse, rat, and monkey, respectively.
2. […] Blood was sampled at the same time points as listed for the Mouse PK study.

[3] = Pharmacokinetics in mouse; format: in vivo, female Balb/c mice
Description: as §3
1. […] Blood samples were obtained at 15 and 30 minutes, and 1, 2, 4, 8 and 24 hours after PO dosing, and at 15 and 30 minutes, and 1, 2, 4, and 8 hours for IV administration.

Erk and AKT = test: phospho-Erk and phospho-AKT in Ang-1 stimulated HUVECs; format: cell-based; conditions: Homo sapiens, HUVEC, 10 min, 200 ng/mL Ang-1 for 10 minutes, read-out: IC50, downstream effectors Erk and AKT
Excerpt: as §2

Fyn = Fyn (Homo sapiens, UniProt P06241); test: protein kinase IC50 determination (ATP at Km); format: biochemical; conditions: ATP concentration at Km
Sequence of Fyn (P06241 whole entry, species assumed): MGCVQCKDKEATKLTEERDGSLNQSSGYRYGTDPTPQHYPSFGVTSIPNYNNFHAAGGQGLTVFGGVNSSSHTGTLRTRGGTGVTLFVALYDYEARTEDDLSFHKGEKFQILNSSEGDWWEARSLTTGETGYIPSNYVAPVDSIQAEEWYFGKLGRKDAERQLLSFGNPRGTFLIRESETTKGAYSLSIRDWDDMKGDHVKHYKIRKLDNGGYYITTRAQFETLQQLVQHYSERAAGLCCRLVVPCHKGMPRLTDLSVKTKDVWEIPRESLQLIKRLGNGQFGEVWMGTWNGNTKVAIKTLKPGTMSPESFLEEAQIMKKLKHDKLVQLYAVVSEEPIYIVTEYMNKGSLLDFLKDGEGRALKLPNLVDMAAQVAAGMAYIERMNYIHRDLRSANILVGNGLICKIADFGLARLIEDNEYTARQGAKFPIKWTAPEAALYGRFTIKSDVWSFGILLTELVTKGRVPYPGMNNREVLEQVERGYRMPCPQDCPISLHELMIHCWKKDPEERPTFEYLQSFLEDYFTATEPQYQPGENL

[4] = CD-1 mice, 10, 30 and 100 mg/kg BID, all dose groups
[5] = male, Sprague-Dawley, plasma, IV: 1 mg/kg
[6] = female, Balb/c, plasma, IV: 1 mg/kg

Cc1ccc(-n2nc(C(C)(C)C)cc2NC(=O)NCc2cc(F)ccc2Oc2ccc3c(cnn3CCO)c2)cc1 [Compound 72, 1-(3-tert-butyl-1-p-tolyl-1H-pyrazol-5-yl)-3-(5-fluoro-2-(1-(2-hydroxyethyl)-1H-indazol-5-yloxy)benzyl)urea]
inhibition of autophosphorylation of BCR-Abl and phosphorylation of its substrates STAT5 and CrkL (immunoblot) (BCR-Abl): capable of inhibiting | IC50 (Abl): 4 nM | body weight loss (K562 cells; K562 tumor-bearing Scid-beige mice, throughout the course of treatment): less than 10% | % Regression (K562 cells; 30 mg/kg BID): Stasis | Complete responses (K562 cells; 30 mg/kg BID): 0/8 | % Regression (K562 cells; 100 mg/kg BID): 93% | Complete responses (K562 cells; 100 mg/kg BID): 5/8 | % Regression (K562 cells; 100 mg/kg QD): Stasis | Complete responses (K562 cells; 100 mg/kg QD): 0/8 | IC50 (Lyn): 25 nM | Micronucleus (in vitro) (micronucleus): Negative | Clinical chemistries [1, 4]: Within normal range (all dose groups) | Weight loss [1, 4]: <5% (all dose groups) | dose-limiting toxicities (DLTs) ([1]; CD-1 mice, up to 100 mg/kg BID): no dose-limiting toxicities (DLTs) were seen; also recorded: no observed DLTs | solubility (Solubility determination; aqueous buffer, pH 3.0): < 5 µg/mL | solubility (Solubility determination; pH 7.4, aqueous buffer): < 5 µg/mL | IC50 (K562): 62 nM | ligand displacement, sodium channel (site 2) (sodium channel (site 2)): > 50% | IC50 (FGFR1): 28 nM | IC50 (Tie2): < 33 nM | IC50 (CYP2C19): 25000 nM | IC50 (p38 pathway): 2 nM | IC50 (CYP3A4; substrate Midazolam): ~8000 nM | IC50 (CYP3A4; substrate Testosterone): ~10000 nM | hERG Patch Clamp Inhibition (hERG): 64% Inhibition at 10 μM | IC50 (VEGFR2): 48 nM | IC50 [2]: 30 nM | AUC (Pharmacokinetics in rat; IV: 1 mg/kg): AUC = 4.7 μg-hr/kg | ER (Pharmacokinetics in rat; IV: 1 mg/kg): ER = 4.6% | AUC (Pharmacokinetics in rat; Oral: 30 mg/kg): AUC = 35 μg-hr/kg | F (Pharmacokinetics in rat; Oral: 30 mg/kg): F = 15% | clearance (Pharmacokinetics in rat; [5]): 3.2 mL/min/kg | half-life (Pharmacokinetics in rat; [5]): 3.9 h | Vd (Pharmacokinetics in rat; male, Sprague-Dawley, plasma, IV: 1 mg/kg, read-out: Vz): 0.048 L/kg | Cmax (Pharmacokinetics in rat; male, Sprague-Dawley, plasma, Oral: 30 mg/kg): 4500 ng/mL | AUC ([3]; IV: 1 mg/kg): AUC = 6.6 μg-hr/kg | ER ([3]; IV: 1 mg/kg): ER = 2.8% | AUC ([3]; Oral: 10 mg/kg): AUC = 10.5 μg-hr/kg | F ([3]; Oral: 10 mg/kg): F = 16% | clearance [3, 6]: 2.6 mL/min/kg | half-life [3, 6]: 3.9 h | Vd ([3]; female, Balb/c, plasma, IV: 1 mg/kg, read-out: Vz): 0.085 L/kg | Cmax ([3]; female, Balb/c, plasma, Oral: 10 mg/kg): 1800 ng/mL | IC50 (Erk and AKT): < 11 nM | IC50 (Fyn): 41 nM
